Test results: ChEMBL document CHEMBL1201862, “PubChem BioAssay data set” (2004)
Activity calls are given as the source filed them.

Columns and labels:
[1] = Fluorescence polarization-based biochemical high throughput dose response assay for activators of the Protein Kinase A-R1A (PKA-R1A) complex. [Related pubchem assays (depositor defined):AID504704, AID504707, AID504799, AID504800]
[2] = Fluorescence polarization-based biochemical high throughput dose response assay for activators of the Protein Kinase A-R2B (PKA-R2B) complex. [Related pubchem assays (depositor defined):AID504700, AID504704, AID504796, AID504797]
[3] = biological target: T1, Dual specificity protein phosphatase 3 (Homo sapiens, UniProt P51452); assay: VHR1 phosphatase inhibitors, primary screen, biochemical, absorbance, uHTS (AID 1654)
T1 sequence (P51452 whole entry): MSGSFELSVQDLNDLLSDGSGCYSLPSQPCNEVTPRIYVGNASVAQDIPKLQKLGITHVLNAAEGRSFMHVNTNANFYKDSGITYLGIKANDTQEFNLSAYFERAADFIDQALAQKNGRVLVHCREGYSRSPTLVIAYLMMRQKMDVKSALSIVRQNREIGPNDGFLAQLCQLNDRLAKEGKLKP

[4] = biological target: T1, Dual specificity protein phosphatase 3; assay: VHR1 phosphatase inhibitors, biochemical (AID 1878)
[5] = biological target: T2, Dual specificity protein phosphatase 6 (Rattus norvegicus, UniProt Q64346); assay: inhibition of rat DUSP6 enzyme activity – biochemical, in vitro, primary screen (AID 425)
T2 sequence (Q64346 whole entry): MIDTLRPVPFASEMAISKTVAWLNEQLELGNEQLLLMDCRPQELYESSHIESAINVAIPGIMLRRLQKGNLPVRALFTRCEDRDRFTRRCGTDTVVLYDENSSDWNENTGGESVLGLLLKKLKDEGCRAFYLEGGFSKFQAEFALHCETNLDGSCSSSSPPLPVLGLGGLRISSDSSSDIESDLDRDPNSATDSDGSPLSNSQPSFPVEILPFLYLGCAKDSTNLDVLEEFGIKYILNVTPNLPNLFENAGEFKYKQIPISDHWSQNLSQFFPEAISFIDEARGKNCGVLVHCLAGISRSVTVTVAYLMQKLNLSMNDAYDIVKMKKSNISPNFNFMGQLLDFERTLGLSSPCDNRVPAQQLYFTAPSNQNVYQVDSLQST

[6] = biological target: Glucose-6-phosphate 1-dehydrogenase (Homo sapiens, UniProt P11413); assay: inhibition of Homo sapiens G6PD, dose series – biochemical, fluorescence, selectivity assay for P. falciparum G6PD inhibitor project, dose response (AID 504792); format: functional
Glucose-6-phosphate 1-dehydrogenase, sequence (P11413 whole entry): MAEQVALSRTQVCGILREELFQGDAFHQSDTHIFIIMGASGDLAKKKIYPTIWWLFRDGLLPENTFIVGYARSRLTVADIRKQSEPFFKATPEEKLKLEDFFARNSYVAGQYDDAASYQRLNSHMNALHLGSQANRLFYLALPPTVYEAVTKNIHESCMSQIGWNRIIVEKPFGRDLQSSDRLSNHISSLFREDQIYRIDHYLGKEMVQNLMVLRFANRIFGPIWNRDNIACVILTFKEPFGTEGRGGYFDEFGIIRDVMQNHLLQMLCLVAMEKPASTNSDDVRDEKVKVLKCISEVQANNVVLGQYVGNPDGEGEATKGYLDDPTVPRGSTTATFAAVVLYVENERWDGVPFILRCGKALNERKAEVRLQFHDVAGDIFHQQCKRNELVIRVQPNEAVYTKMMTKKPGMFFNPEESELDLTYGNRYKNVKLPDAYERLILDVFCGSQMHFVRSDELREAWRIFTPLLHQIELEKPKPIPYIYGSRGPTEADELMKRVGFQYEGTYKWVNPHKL

[7] = biological target: T1, Dual specificity protein phosphatase 3; assay: SAR VHR1 absorbance Assay for In Vitro dose response studies. [Related pubchem assays (depositor defined):AID1654, AID1661, AID1878, AID1992, AID2004]
[8] = biological target: T1, Dual specificity protein phosphatase 3; assay: SAR VHR1 Fluorescent Assay for In Vitro dose response studies. [Related pubchem assays (depositor defined):AID1654, AID1661, AID1878, AID1992, AID2004, AID2070, AID2085]; format: functional
[9] = biological target: T3, Tyrosine-protein phosphatase non-receptor type 7 (Homo sapiens, UniProt P35236); assay: redox-active compounds inhibiting HePTP phosphatase – biochemical, fluorescence, mechanism study (AID 2068); format: functional
T3 sequence (P35236 whole entry): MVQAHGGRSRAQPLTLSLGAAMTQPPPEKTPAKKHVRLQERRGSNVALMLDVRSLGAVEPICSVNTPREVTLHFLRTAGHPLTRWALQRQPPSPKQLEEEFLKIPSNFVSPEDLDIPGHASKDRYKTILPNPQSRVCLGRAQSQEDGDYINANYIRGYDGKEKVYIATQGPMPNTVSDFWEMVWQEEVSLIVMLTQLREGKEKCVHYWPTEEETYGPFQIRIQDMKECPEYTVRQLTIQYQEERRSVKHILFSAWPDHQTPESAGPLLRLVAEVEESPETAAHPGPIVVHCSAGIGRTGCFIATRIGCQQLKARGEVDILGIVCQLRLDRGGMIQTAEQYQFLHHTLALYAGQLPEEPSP

[10] = biological target: T2, Dual specificity protein phosphatase 6; assay: SAR analysis of inhibitors of MKP-3 - Set 2. [Related pubchem assays (depositor defined):AID1055, AID1661, AID425, AID553, AID566]; format: functional
[11] = biological target: T3, Tyrosine-protein phosphatase non-receptor type 7; assay: SAR analysis of chemical inhibitors of HePTP using a Fluorescent assay - Set 2. [Related pubchem assays (depositor defined):AID1059, AID1077, AID1661, AID2085, AID521]; format: functional
[12] = biological target: T1, Dual specificity protein phosphatase 3; assay: SAR VHR1 Fluorescent Assay for In Vitro dose response studies Set 2. [Related pubchem assays (depositor defined):AID1654, AID1661, AID1878]; format: functional
[13] = biological target: T2, Dual specificity protein phosphatase 6; format: functional
[14] = biological target: T4, Tyrosine-protein phosphatase non-receptor type 11 (Homo sapiens, UniProt Q06124); assay: PTPN11 enzyme inhibitors – biochemical, selectivity assay for STEP inhibitor project, dose response (AID 602367); format: functional; details: read-out: IC50_Mean
T4 sequence (Q06124 whole entry): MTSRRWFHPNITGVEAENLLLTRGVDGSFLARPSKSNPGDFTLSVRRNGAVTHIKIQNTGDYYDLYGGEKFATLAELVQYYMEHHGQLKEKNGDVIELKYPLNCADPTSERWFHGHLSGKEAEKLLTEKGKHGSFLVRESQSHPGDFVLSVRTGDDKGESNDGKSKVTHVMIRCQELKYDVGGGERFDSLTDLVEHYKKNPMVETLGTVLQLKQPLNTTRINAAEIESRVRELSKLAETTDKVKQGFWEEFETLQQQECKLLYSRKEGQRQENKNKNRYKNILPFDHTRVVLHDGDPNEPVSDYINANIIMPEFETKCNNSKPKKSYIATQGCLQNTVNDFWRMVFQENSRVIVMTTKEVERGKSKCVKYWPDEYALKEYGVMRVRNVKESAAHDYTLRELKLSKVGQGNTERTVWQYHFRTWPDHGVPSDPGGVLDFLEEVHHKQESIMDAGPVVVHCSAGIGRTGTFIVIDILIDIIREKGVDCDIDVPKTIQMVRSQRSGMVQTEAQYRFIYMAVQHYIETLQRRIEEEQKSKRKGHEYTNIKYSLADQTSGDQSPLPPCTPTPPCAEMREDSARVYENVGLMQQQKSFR

[15] = biological target: T5, Tyrosine-protein phosphatase non-receptor type 5 (Homo sapiens, UniProt P54829); assay: PTPN5 enzyme inhibition – biochemical, fluorescence intensity, uHTS hits, confirmation (AID 602372); format: functional; details: read-out: IC50_Mean
T5 sequence (P54829 whole entry): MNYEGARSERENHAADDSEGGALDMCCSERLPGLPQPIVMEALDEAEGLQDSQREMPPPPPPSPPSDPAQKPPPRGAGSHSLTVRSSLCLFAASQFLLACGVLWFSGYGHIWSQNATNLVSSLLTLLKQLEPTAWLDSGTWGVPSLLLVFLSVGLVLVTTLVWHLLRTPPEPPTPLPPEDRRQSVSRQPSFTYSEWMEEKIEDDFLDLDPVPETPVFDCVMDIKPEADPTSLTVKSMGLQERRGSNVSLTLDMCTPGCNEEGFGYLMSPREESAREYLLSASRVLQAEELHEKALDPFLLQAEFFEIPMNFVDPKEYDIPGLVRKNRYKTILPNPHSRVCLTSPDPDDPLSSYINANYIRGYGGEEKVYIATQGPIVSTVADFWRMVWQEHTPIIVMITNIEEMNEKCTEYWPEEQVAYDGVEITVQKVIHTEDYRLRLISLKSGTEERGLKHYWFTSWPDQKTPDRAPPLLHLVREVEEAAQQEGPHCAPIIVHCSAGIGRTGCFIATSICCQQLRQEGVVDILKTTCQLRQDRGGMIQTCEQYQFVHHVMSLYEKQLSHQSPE

[16] = biological target: T1, Dual specificity protein phosphatase 3; assay: VHR phosphatase inhibition, dose response, selectivity assay for STEP inhibitor project, biochemical (AID 602374); format: functional; details: read-out: IC50_Mean
[17] = biological target: T6, Tyrosine-protein phosphatase non-receptor type 22 (Homo sapiens, UniProt Q9Y2R2); assay: lymphoid phosphatase LYP inhibitors – biochemical, selectivity assay for STEP inhibitor project, dose response (AID 624241); format: functional
T6 sequence (Q9Y2R2 whole entry): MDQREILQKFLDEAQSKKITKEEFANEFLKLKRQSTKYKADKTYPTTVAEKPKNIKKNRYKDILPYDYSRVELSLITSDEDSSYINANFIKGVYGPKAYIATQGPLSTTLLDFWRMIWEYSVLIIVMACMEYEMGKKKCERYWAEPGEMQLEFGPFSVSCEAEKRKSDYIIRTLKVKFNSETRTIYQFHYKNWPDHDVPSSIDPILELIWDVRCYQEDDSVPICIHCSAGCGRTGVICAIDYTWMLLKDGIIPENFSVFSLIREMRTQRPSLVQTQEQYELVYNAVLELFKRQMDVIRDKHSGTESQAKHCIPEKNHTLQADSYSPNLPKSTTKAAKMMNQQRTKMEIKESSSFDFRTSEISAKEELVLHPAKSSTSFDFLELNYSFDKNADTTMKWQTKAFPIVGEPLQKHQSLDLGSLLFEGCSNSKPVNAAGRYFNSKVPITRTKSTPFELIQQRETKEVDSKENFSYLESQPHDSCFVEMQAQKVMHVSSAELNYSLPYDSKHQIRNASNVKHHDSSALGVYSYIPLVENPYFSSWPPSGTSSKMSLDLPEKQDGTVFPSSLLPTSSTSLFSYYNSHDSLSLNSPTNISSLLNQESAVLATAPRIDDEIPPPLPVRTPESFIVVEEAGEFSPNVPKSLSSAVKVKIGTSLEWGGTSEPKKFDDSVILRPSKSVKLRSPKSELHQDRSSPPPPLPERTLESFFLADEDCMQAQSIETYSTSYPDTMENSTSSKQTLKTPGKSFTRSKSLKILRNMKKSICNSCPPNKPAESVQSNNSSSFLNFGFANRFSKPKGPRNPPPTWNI

[18] = Luminescence Cell-Based Dose Retest to Confirm Inhibitors of Cancer Stem Cells. [Related pubchem assays (depositor defined):AID2717, AID2721]; format: functional; details: Homo sapiens
[19] = viability loss of HMLE_sh_eGFP cells – cell-based, luminescence, counter-screen for HMLE_sh_ECad selective toxicity project, dose response (AID 463074); format: functional, Homo sapiens;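 further: HMLE human mammary epithelial cells expressing control shRNA against eGFP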
[20] = tested on: Escherichia coli; assay: microbe, parasite or virus in culture
[21] = tested on: Escherichia coli; assay: microbe, parasite or virus in culture; remark: listed apart in the source
[22] = biological target: T1, Dual specificity protein phosphatase 3; assay: SAR VHR1 Fluorescent Assay for In Vitro dose response studies Set 3. [Related pubchem assays (depositor defined):AID1654, AID1661, AID1878]; format: functional

In the case of `Nc1ncnc2c1nc(Br)n2[C@@H]1O[C@@H]2COP(=O)(O)O[C@H]2[C@H]1O`, the EC50 [1] is reported as 0.0344 µM (active) and the EC50 [2] is reported as 0.0511 µM (active).
In the case of `COc1ccc(NC(=S)N(CCC(C)C)C2CCN(C(C)C)CC2)cc1Cl`, the IC50 [3] is reported as 2.09 µM (active), the IC50 [4] is reported as 4.01 µM (active) and the IC50 [5] is reported as > 158 µM (not active). For the same compound, the IC50 [6] was > 80 µM (inactive), the IC50 [7] was 1.26 µM (active) and the IC50 [8] was > 99 µM (inactive). For the same compound, the IC50 [9] was < 0.195 µM (active), the IC50 [10] was > 100 µM (inactive) and the IC50 [11] was 0.662 µM (active). The IC50 [12] was 0.216 µM (active), the IC50 [13] was > 99 µM (inactive) and the IC50 [14] was 0.676 µM (active). For the same compound, the IC50 [15] was 3.86 µM (active), the IC50 [16] was 0.271 µM (active) and the IC50 [17] was 21 µM (inactive).
In the case of `COc1ccccc1N=C(S)N=Nc1c(O)[nH]c2ccc(Br)cc12`, the AC50 [18] is reported as 0.739 µM (active) and the AC50 [19] is reported as 31.4 µM (active).
With `Cc1ccccc1C(=O)N1CCC(C(=O)NC(C)c2ccc(-n3ccnc3)cc2)CC1` (configuration not stated) the AC50 [20] was 24.5 µM (active) and the AC50 [21] was 69.2 µM (active).
In the case of `O=C(Nc1ccc(-c2nc3ccccc3s2)cc1)c1cc(-n2cnnc2)ccc1Cl`, the IC50 [22] is reported as 12.1 µM (active).
